Article PMC3722296 (PLoS ONE, 2013)
“Also recorded” adds a separate entry of the source. Where no end group is shown, it is not given here.

Columns and labels:
S. aureus S1 = experiment: Antibiotic susceptibility, agar disc diffusion; format: cell-based, Staphylococcus aureus; settings: agar disc diffusion method
Description: (§1) S1 was isolated from the blood of a patient and S2 was isolated from the sputum of a neonate. After isolation and identification, S. aureus strains were assessed for their susceptibility to various antibiotics, using the agar disc diffusion method. S1 was found Methicillin resistant (MRSA) and is also resistant to Amoxicillin, Oxacillin, Amikacin, Tobramycin, Fluoroquinolones, Erythromycin and Clindamycin. However, it was susceptible to Gentamicin, Synercid, Co-trimoxazole, Rifampicin, Fusidic acid, Vancomycin, Teicoplanin and Linezolid.

[1] = MHB medium without supernatant, 37°C, 24 h; RP-HPLC
Description: (§4) Triplicate wells were treated for each concentration of peptide. In parallel, several controls were performed: with and without peptides in MHB medium.
(§5) The synthetic peptides treated with bacterial supernatants and different controls including culture medium, bacterial supernatants, and synthetic peptides were separated using a Dionex HPLC system (Ultimate 3000; Sunnyvale, CA USA) on a Nucleosil reverse-phase 300–5C18-column (4×250 mm; particle size, 5 µm; porosity, 300 Å) (Macherey Nagel Hoerdt, France). Absorbance was monitored at 214 nm, and the solvent system consisted of 0.1% (v/v) TFA in water (solvent A) and 0.09% (v/v) TFA in 70% (v/v) acetonitrile-water (solvent B). Elution was performed at a flow rate of 700 µL/min, with the gradient as indicated on chromatograms. Fractions were collected with one min time interval. They were subsequently concentrated by evaporation by using a speed-vac, however not allowing them to dry completely.

S. aureus ATCC25923 = format: cell-based, Staphylococcus aureus; settings: ATCC25923, 24 h, pH 7.3
Description: (§2) Different S. aureus strains described above were first pre-cultured aerobically at 37°C for 20 h in a Mueller-Hinton-Broth (MHB) medium, pH 7.3 (Difco Laboratories, Detroit, MI). Bacteria were suspended at absorbance of 0.001 at 620 nm in the MHB medium. […] Ten µl final volumes (10–200 µg/mL) of synthetic peptides (LL-37, bCAT, hCAT and bCTL) were incubated in microtitration plates with 90 µl of a mid-logarithmic phase culture of bacteria, with a starting absorbance of 0.001 at 620 nm. In the initial inoculi, bacteria were quantified by the agar plate spreading method which was 5×10^5 colony forming units (CFU)/mL. Tetracycline (10 mg/L) and Cefotaxime (0.1 mg/L) were used as positive controls. Microbial growth was assessed by the increase of absorbance after 24 h incubation at 37°C., [29] The A620 nm value of control cultures growing in the absence of peptide and antibiotics was defined as 100% growth. A620 nm zero with the antibiotics (Tetracycline and Cefotaxime) was taken as 100% inhibition. Absence of bacterial growth was verified by agar plate spreading. Each assay was performed in triplicates.
(§3) The MIC values (µg/mL) are reported as means of three independent experiments. To determine significance, between different peptides (rows) and bacterial strains (columns), one way ANOVA was used. Overall significance and correlation was evaluated by 4×4 factorial ANOVA for independent samples. Significance was accepted at p≤0.05.

S. aureus ATCC49775 = format: cell-based, Staphylococcus aureus; settings: ATCC49775, 24 h, pH 7.3
Description: as §2, §3

[2] = tested on: staphylococcal proteases released into bacterial supernatants; settings: 37°C, 24 h; for degradation by culture supernatant of S2 / degradation by culture supernatants S49775, S25923 and S1: no protease inhibitors, RP-HPLC 214 nm, sequencing, MALDI-TOF, triplicate wells; for degradation by four strain supernatants in presence of protease inhibitors: protease inhibitor cocktail + 100 µM 1–10 phenanthroline
Description: S. aureus strains were precultured and plated on the agar plates and cultivated for 24 h at 37°C. After incubation, one colony per isolate was transferred to 10 mL of the MHB medium and incubated at 37°C for about 30 h to late stationary growth phase. After incubation, cultures were centrifuged at 10,000×g for 15 min and supernatants were filtered using a 0.22 µM Millex®-GV (Millipore, Carrigtwohill, Ireland) to eliminate bacteria. The supernatants were stored at −20°C until further use. In order to check sterility, 1 mL of each supernatant was incubated at 37°C for 48 h. Absence of a colony was interpreted as lack of viable bacteria.
as §4
For which, protease inhibitor cocktail (complete protease inhibitors except metalloproteases) (Roche Diagnostic GmbH, Mannheim, Germany) supplemented with 100 µM of 1–10 phenanthroline (metalloprotease inhibitor) (Sigma Aldrich GmbH, Steinheim, Germany) was added to bacterial supernatants before the addition of synthetic peptides. The whole suspension was incubated at 37°C for 24 h prior to being analyzed by RP-HPLC.
as §5
The N-terminal sequence of purified peptides was determined by automatic Edman degradation analysis on a Procise microsequencer (Applied Biosystems, Courtaboeuf, France). Samples purified by HPLC were loaded on polybrene-treated glass-fiber filters. Phenylthiohydantoin-amino acids (Pth-Xaa) were identified by chromatography on a C18 column (PTH C-18, 2.1 mm×200 mm).
Mass determination was carried out on a Brucker BIFLEX™ Matrix-Assisted Laser Desorption Ionization – Time-Of-Flight mass spectrometer (MALDI-TOF) (equipped with the high resolution optics (SCOUT™) with X–Y multi-sample probe, a gridless reflector and with the HIMAS™ linear detector). With a maximum accelerating potential of 30 kV, the system can be operated either in linear or the reflective mode. Ionization was carried out with a 337-nm beam from a nitrogen laser with a repetition rate of 3 Hz. The output signal from the detector was digitized at a sampling rate of 250 MHz in linear mode and 500 MHz in reflector mode using a 1 GHz digital oscilloscope (Lecroy model). Brucker supplied software hosted in Sun sparcworkstation was used for data processing and the instrumental control. […] These studies were realized using the matrix α-cyano-4-hydroxycinnamic acid, obtained from Sigma, and prepared as a saturated solution in acetone. A total of 1–2 µl of the sample matrix aliquot solution was deposited on the probe and dried by ambient air. A thin layer matrix crystal was obtained after rapid spreading and evaporation. […] A micromolar analyte solution was applied to the matrix and allowed to dry under moderate vacuum. The whole preparation was washed by 1 μl of trifluoroacetic acid (0.5%) aqueous solution. This cleaning procedure helps remove remaining alkaline cations and often leads to an increase in sensitivity.

S. aureus S2 (MSSA) = format: cell-based, Staphylococcus aureus; settings: S2, 24 h, pH 7.3
Description: as §1, §2, §3

S. aureus S1 (MRSA) = format: cell-based, Staphylococcus aureus; settings: S1, 24 h, pH 7.3
Description: as §1, §2, §3

MHB medium = settings: 37°C, up to 24 h
[3] = S. aureus ATCC49775 culture supernatant with protease inhibitors (Pi+S49775); settings: S. aureus ATCC49775, 37°C, up to 24 h
[4] = S. aureus ATCC25923 culture supernatant with protease inhibitors (Pi+S25923); settings: S. aureus ATCC25923, 37°C, up to 24 h
[5] = S. aureus S2 (MSSA) culture supernatant, MHB medium, filtered; settings: 37°C, up to 24 h
[6] = S. aureus ATCC25923 culture supernatant (S25923), MHB medium, filtered; settings: S. aureus ATCC25923, 37°C, up to 24 h
[7] = S. aureus S1 culture supernatant with protease inhibitors (Pi+S1); settings: S. aureus S1 (MRSA), 37°C, up to 24 h
[8] = S. aureus S1 (MRSA) culture supernatant, MHB medium, filtered; settings: 37°C, up to 24 h
[9] = S. aureus S2 culture supernatant with protease inhibitors (Pi+S2); settings: S. aureus S2 (MSSA), 37°C, up to 24 h
[10] = S. aureus ATCC49775 culture supernatant (S49775), MHB medium, filtered; settings: S. aureus ATCC49775, 37°C, up to 24 h
S. aureus = experiment: Antibacterial activity against S. aureus, (strains together or not specified); format: cell-based, Staphylococcus aureus
Description: as §2

human erythrocytes = settings: cited from earlier work
Text: Due to continuous resistance development by S. aureus, the interest for natural AMPs is increasing because some of them display potent antibacterial activity. However, secondary reactions such as hemolytic activity, [36] limit their use as systemic anti-infective drugs. Until recently, no such reaction was reported for the antimicrobial Cgs-derived peptides in the literature. Several CgA-derived peptides were previously characterized to display antimicrobial properties, [9] however, data concerning killing of S. aureus is not reported. CAT was previously reported, to be active against diff ...

S. aureus S2 = experiment: Antibiotic susceptibility, agar disc diffusion; format: cell-based, Staphylococcus aureus; settings: agar disc diffusion method
Description: as §1

In the case of Teicoplanin, the “susceptibility of strain S1” value (S. aureus S1) is reported as “susceptible”.
With “SSMKLSFRARAYGFRGPGPQL [hCAT, catestatin]” the “processing in MHB medium” value [1] was “not cleaved”, the MIC (S. aureus ATCC25923) was 135 µg/mL and the MIC (S. aureus ATCC49775) was 125 µg/mL. The “degradation by culture supernatant of S2” value ([2]; peptide at MIC concentration) was “completely cleaved”, the “degradation by culture supernatants S49775, S25923 and S1” value ([2]; peptide at MIC concentration) was “partially processed” and the MIC (S. aureus S2 (MSSA)) was 150 µg/mL. For the same compound, the MIC (S. aureus S1 (MRSA)) was 130 µg/mL.
In the case of `CC[C@H]1OC(=O)[C@H](C)[C@@H](O[C@H]2C[C@@](C)(OC)[C@@H](O)[C@H](C)O2)[C@H](C)[C@@H](O[C@@H]2O[C@H](C)C[C@H](N(C)C)[C@H]2O)[C@](C)(O)C[C@@H](C)C(=O)[C@H](C)[C@@H](O)[C@]1(C)O` [Erythromycin], the “susceptibility of strain S1” value (S. aureus S1) is reported as “resistant”.
For RSMRLSFRARGYGFRGPGLQL, the not cleaved (MHB medium) was “In MHB medium, bCAT was not processed”, the not cleaved [3] was “not cleaved by any of the four strain supernatants tested in presence of protease inhibitors” and the not cleaved [4] was “not cleaved by any of the four strain supernatants tested in presence of protease inhibitors”. The cleaved bond [5] was “S349-F350; also recorded: G356-F357”, the cleaved bond [6] was “L348-S349” and the not cleaved [7] was “not cleaved by any of the four strain supernatants tested in presence of protease inhibitors”. For the same compound, the cleaved bond [8] was “L348-S349”, the not cleaved [9] was “not cleaved by any of the four strain supernatants tested in presence of protease inhibitors” and the cleaved bond [10] was “L348-S349”.
With `CO[C@H]1/C=C/O[C@@]2(C)Oc3c(C)c(O)c4c(O)c(c(/C=N/N5CCN(C)CC5)c(O)c4c3C2=O)NC(=O)/C(C)=C\C=C\[C@H](C)[C@H](O)[C@@H](C)[C@@H](O)[C@@H](C)[C@H](OC(C)=O)[C@@H]1C` [Rifampicin] the “susceptibility of strain S1” value (S. aureus S1) was “susceptible”.
With `CC1(C)S[C@@H]2[C@H](NC(=O)[C@H](N)c3ccc(O)cc3)C(=O)N2[C@H]1C(=O)O` [Amoxicillin] the “susceptibility of strain S1” value (S. aureus S1) was “resistant”.
In the case of `Cc1onc(-c2ccccc2)c1C(=O)N[C@@H]1C(=O)N2[C@@H]1SC(C)(C)[C@@H]2C(=O)O` [Oxacillin], the “susceptibility of strain S1” value (S. aureus S1) is reported as “resistant”.
In the case of `NC[C@H]1O[C@H](O[C@H]2[C@H](O)[C@@H](O[C@H]3O[C@H](CO)[C@@H](O)[C@H](N)[C@H]3O)[C@H](N)C[C@@H]2N)[C@H](N)C[C@@H]1O` [Tobramycin], the “susceptibility of strain S1” value (S. aureus S1) is reported as “resistant”.
With RSMRLSFRARGYGFR the not cleaved [3] was “remains unaffected by S. aureus supernatants with or without protease inhibitors”, the not cleaved [4] was “remains unaffected by S. aureus supernatants with or without protease inhibitors” and the not cleaved [5] was “not degraded by any of the staphylococcal strains tested”. The not cleaved [6] was “not degraded by any of the staphylococcal strains tested”, the not cleaved [7] was “remains unaffected by S. aureus supernatants with or without protease inhibitors” and the not cleaved [8] was “not degraded by any of the staphylococcal strains tested”. For the same compound, the not cleaved [9] was “remains unaffected by S. aureus supernatants with or without protease inhibitors” and the not cleaved [10] was “not degraded by any of the staphylococcal strains tested”.
With SSMKLSFRARGYGFRGPGPQL the not cleaved (MHB medium) was “In presence of MHB medium, hCAT was not cleaved”, the cleaved bond [5] was “G364-F365; also recorded: S357-F358” and the cleaved bond [6] was “L356-S357”. The cleaved bond [8] was “L356-S357” and the cleaved bond [10] was “L356-S357”.
With `CC(=O)NC[C@H]1CN(c2ccc(N3CCOCC3)c(F)c2)C(=O)O1` [Linezolid] the “susceptibility of strain S1” value (S. aureus S1) was “susceptible”.
With `CN[C@H](CC(C)C)C(=O)N[C@H]1C(=O)N[C@@H](CC(N)=O)C(=O)N[C@H]2C(=O)N[C@H]3C(=O)N[C@H](C(=O)N[C@H](C(=O)O)c4cc(O)cc(O)c4-c4cc3ccc4O)[C@H](O)c3ccc(c(Cl)c3)Oc3cc2cc(c3O[C@@H]2O[C@H](CO)[C@@H](O)[C@H](O)[C@H]2O[C@H]2C[C@](C)(N)[C@H](O)[C@H](C)O2)Oc2ccc(cc2Cl)[C@H]1O` [Vancomycin] the “susceptibility of strain S1” value (S. aureus S1) was “susceptible”.
For `CC(=O)O[C@H]1C[C@@]2(C)[C@@H](C[C@@H](O)[C@H]3[C@@]4(C)CC[C@@H](O)[C@@H](C)[C@@H]4CC[C@@]32C)/C1=C(\CCC=C(C)C)C(=O)O` [Fusidic acid], the “susceptibility of strain S1” value (S. aureus S1) was “susceptible”.
In the case of “FLE-RSMRLSFRARGYGFR [FLE-CTL, CTL derived peptide with a hydrophobic N-terminal end]”, the “antibacterial activity against S. aureus” value (S. aureus; at 400 µg/mL, recent experiments) is reported as “inactive”.
For `CCC[C@@H]1C[C@@H](C(=O)N[C@@H]([C@H]2O[C@H](SC)[C@H](O)[C@@H](O)[C@H]2O)[C@H](C)Cl)N(C)C1` [Clindamycin], the “susceptibility of strain S1” value (S. aureus S1) was “resistant”.
With Co-trimoxazole the “susceptibility of strain S1” value (S. aureus S1) was “susceptible”.
In the case of “RSMRLSFRARGYGFRGPGLQL [bCAT, catestatin]”, the “processing in MHB medium” value [1] is reported as “not processed”, the MIC (S. aureus ATCC25923) is reported as 100 µg/mL and the MIC (S. aureus ATCC49775) is reported as 100 µg/mL. The “degradation by culture supernatant of S2” value ([2]; peptide at MIC concentration) was “largely cleaved”, the “degradation by culture supernatants S49775, S25923 and S1” value ([2]; peptide at MIC concentration) was “processed” and the “degradation by four strain supernatants in presence of protease inhibitors” value ([2]; RP-HPLC) was “not cleaved”. For the same compound, the MIC (S. aureus S2 (MSSA)) was 115 µg/mL and the MIC (S. aureus S1 (MRSA)) was 100 µg/mL.
In the case of “FLE-RSMRLSFRARG [shorter peptide lacking the C-terminal end (YGFR) of CTL]”, the “concentration at which antibacterial activities are displayed” value (S. aureus; data not shown) is reported as 200 µg/mL.
For RSMRLSFRARGYGFR [bCTL, cateslytin], the hemolytic activity (human erythrocytes) is given as “not hemolytic”, the MIC (S. aureus ATCC25923) is given as 40 µg/mL and the MIC (S. aureus ATCC49775) is given as 37 µg/mL. The “degradation by any of the staphylococcal strains tested (four supernatants)” value ([2]; ATCC49775, ATCC25923, S1, S2 supernatants, peptide at MIC concentration, RP-HPLC) was “not degraded”, the “degradation by four strain supernatants in presence of protease inhibitors” value ([2]; RP-HPLC) was “remains unaffected” and the MIC (S. aureus S2 (MSSA)) was 45 µg/mL. The MIC (S. aureus S1 (MRSA)) was 37 µg/mL and the “MIC value against different strains of S. aureus” value (S. aureus; across ATCC49775, ATCC25923, S1, S2) was 37 to 45 µg/mL.
For `COc1cccc(OC)c1C(=O)N[C@@H]1C(=O)N2[C@@H]1SC(C)(C)[C@@H]2C(=O)O` [Methicillin], the “susceptibility of strain S1” value (S. aureus S1) was “resistant” and the “susceptibility of strain S2” value (S. aureus S2) was “susceptible”.
With `CNC(C)C1CCC(N)C(OC2C(N)CC(N)C(OC3OCC(C)(O)C(NC)C3O)C2O)O1` (centres unmarked) [Gentamicin] the “susceptibility of strain S1” value (S. aureus S1) was “susceptible”.
For `NCC[C@H](O)C(=O)N[C@@H]1C[C@H](N)[C@@H](O[C@H]2O[C@H](CN)[C@@H](O)[C@H](O)[C@H]2O)[C@H](O)[C@H]1O[C@H]1O[C@H](CO)[C@@H](O)[C@H](N)[C@H]1O` [Amikacin], the “susceptibility of strain S1” value (S. aureus S1) was “resistant”.
